In US8304557B2, “Fused heterocycle derivatives and use thereof” (Takeda Pharmaceutical Company Limited, priority 2007, dated 2012):
Each block holds one compound with its values, some of them ahead of it.

Key:
BRAF (V600E) kinase = target: T1, BRAF (V600E) kinase (Homo sapiens, UniProt P15056, V600E); assay: BRAF (V600E) kinase inhibitory activity ([γ-32P]ATP, GST-MEK1 (K96R) substrate); format: biochemical; conditions: 1 μM compound; BRAF (V600E) 30 ng, GST-MEK1 (K96R) 250 ng; room temperature, 20 min; read-out: The inhibitory rate of the compounds at 1 μM (%)
T1 construct: made in house; host or cells: SF-21 insect cells, recombinant baculovirus BAC-V600E
T1 sequence (P15056 457-717 V600E limits assumed): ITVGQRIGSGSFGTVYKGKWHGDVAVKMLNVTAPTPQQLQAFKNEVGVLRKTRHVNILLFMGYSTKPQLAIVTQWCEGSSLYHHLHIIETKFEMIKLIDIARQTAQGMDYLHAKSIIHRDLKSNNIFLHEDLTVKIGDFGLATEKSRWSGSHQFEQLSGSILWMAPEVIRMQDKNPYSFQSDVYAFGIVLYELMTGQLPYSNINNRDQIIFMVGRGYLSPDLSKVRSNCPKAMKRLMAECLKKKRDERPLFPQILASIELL
Protocol: Human BRAF gene was cloned by PCR using human Testis cDNA library (Clontech) as a template. The primer used for PCR was prepared from base sequence (Genbank Accession NM_004333) information of BRAF gene by adding a base sequence encoding flag peptide and a recognition sequence of the restriction enzyme to area encoding the BRAF kinase domain region, so that the protein contains an N-terminal Flag. The primer base sequence is shown below.
The PCR reaction was conducted using Pyrobest (Takara Shuzo Co., Ltd). The obtained PCR product was electrophoresed on agarose gel (1%), the DNA fragment amplified by PCR was recovered from the gel, and then digested with restriction enzymes EcoRI and SalI. The DNA treated with the restriction enzymes was electrophoresed on agarose gel (1%), and the obtained DNA fragment was recovered. The recovered DNA fragment was ligated to plasmid pFASTBAC1 (Invitrogen) digested with restriction enzymes EcoRI and SalI to give expression plasmid pFB-BRAF, and the base sequence of the insert fragment was confirmed. In addition, mutation was introduced into V600E using a Quick change Site Directed Mutagenesis kit (Stratagene). The nucleotide sequences of the primers used are shown in the following.
The obtained plasmid was sequenced to confirm the introduction of mutation into V600E. The plasmid DNA was digested with restriction enzymes EcoRI and SalI, DNA treated with the restriction enzymes was electrophoresed on agarose gel (1%), and the obtained DNA fragment was recovered. The recovered DNA fragment was ligated to plasmid pFASTBAC1 (Invitrogen) digested with restriction enzymes EcoRI and SalI to give expression plasmid pFB-V600E.
SF-21 cells were sown at 1×10^6 cells/mL to Sf-900II SFM medium (1 L, Invitrogen) containing 10% fetal bovine serum (Trace), 50 mg/L Gentamicin (Invitrogen) and 0.1% Pluronic F-68 (Invitrogen), and shaking culture was performed using a 2 L volume Erlenmeyer flask at 27° C., 100 rpm. After culturing for 24 hr, recombinant baculovirus BAC-V600E (13.4 mL) was added to the mixture, and the mixture was further cultured for 3 days. […]

[1] = tested on: human colon cancer cell HT-29; assay: Colon cancer cell HT-29 growth suppressive action in vitro (SRB); format: cell-based; conditions: 72 h, HT-29 cells, cultured for 3 days with compound, SRB staining, read-out: IC50 (nM), HT-29 growth suppression
Protocol: A cell suspension (100 μL, 3,000 cells/well) of human colon cancer cell HT-29 (purchased from ATCC) was plated in a 96-well plate, and the cells were cultured at 37° C. in a 5% carbon dioxide gas incubator. The next day, 2-fold serial dilution of each test compound solution (diluted from maximum concentration 20 μM) (100 μL) was added, and the cells were cultured for 3 days. The culture medium containing the test compound was removed, and the cells were washed with phosphate buffer (PBS). A 50% trichloroacetic acid solution was added to the final concentration of 10% (v/v), and the mixture was stood overnight at 4° C., whereby the cells were fixed to the plate. Then, a dye SRB 0.4% (W/V) solution (dissolved in 1% acetic acid) was added at 50 μl/well, whereby the cell protein was fixed and stained (Skehan et al., Journal Of National Cancer Institute, vol. 82, pp. 1107-1112, 1990). The cells were washed 3 times with 1% acetic acid solution (200 μL/well), and 100 μL of an extract (10 mM Tris buffer) was added to extract the dye. The absorbance at an absorption wavelength […] was measured, and cell amount was measured as a protein amount.

[2] = tested on: phosphorylated MEK1/2 in human colon cancer cell HT-29; assay: Colon cancer cell HT-29 intracellular MEK phosphorylation inhibitory action in vitro (Western blot); format: cell-based; conditions: HT-29 cells, 2 hr treatment, anti-phosphorylated MEK1/2 (Ser217/221), read-out: IC50 (nM), MEK phosphorylation inhibition
Protocol: A cell suspension (500 μL) of human colon cancer cell HT-29 was plated in a 48-well plate (100,000 cells/well), and the cells were cultured overnight at 37° C. in the presence of 5% CO2, treated with a test compound (250 μL/well) diluted in 3-fold dilution series and cultured for two more hours. After 2 hr, the culture medium containing the test compound was removed, and the cells were lysed with SDS sample buffer (100 μL/well) and heated at 95° C. for 5 min. Thereafter, the cells were applied to SDS-PAGE, and the protein was transferred onto Sequi-Blot™ PVDF Membrane (Bio-Rad, Richmond, Calif.) by the Western blot method. The cells were blocked with a block-Ace solution (Snow Brand Milk Products Co., Ltd) dissolved in phosphate buffer to 5% W/V, and reacted overnight with anti-phosphorylated MEK1/2 (Ser217/221) (Cell signaling #9121) diluted 1000-fold with phosphate buffer containing 0.4% block-Ace. […] The membrane was washed in the same manner as above, chemical luminescence of a phosphorylated MEK1/2 protein labeled with the antibody, which was caused by ECL-plus Detection Reagent (Amersham bioscience), was detected by Luminescent Image Analyzer LAS-1000 (FUJIFILM Corporation).

[3] = target: VEGFR2 intracellular domain protein (Homo sapiens, UniProt P35968); assay: VEGF receptor 2 kinase inhibitory activity (AlphaScreen); conditions: read-out: The inhibitory rate of the compounds at 1 μM (VEGF receptor 2 kinase)
Chain of VEGFR2 intracellular domain protein (P35968 786-1356 limits assumed): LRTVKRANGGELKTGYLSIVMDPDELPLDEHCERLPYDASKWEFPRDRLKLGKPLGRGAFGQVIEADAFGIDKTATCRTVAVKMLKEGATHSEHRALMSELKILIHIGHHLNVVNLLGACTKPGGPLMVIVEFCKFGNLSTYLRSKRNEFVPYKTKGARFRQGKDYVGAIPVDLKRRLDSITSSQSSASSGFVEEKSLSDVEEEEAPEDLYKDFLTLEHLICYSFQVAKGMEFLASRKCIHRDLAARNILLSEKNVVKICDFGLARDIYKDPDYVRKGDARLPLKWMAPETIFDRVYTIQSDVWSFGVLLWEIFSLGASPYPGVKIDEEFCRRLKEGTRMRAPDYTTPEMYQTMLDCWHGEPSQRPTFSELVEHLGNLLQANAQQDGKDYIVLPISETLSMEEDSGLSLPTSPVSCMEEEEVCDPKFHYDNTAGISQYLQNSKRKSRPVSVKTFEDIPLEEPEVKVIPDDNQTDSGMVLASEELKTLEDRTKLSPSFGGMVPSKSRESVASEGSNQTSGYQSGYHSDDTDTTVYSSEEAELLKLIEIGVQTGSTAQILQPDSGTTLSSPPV
Protocol: Human vascular endothelial growth factor receptor 2 (hereinafter to be referred to as VEGFR2) gene was cloned by PCR using cDNA Libraries Human Placenta (Clontech) as a template.
The PCR reaction was conducted using a KOD-plus kit (TOYOBO). […] Furthermore, using BAC-TO-BAC Baculovirus Expression System (Invitrogen), virus stock BAC-VEGFR2 of recombinant baculovirus was prepared.
SF-21 cells were sown at 1×10^6 cells/mL to Sf-900II SEM medium (1 L, Invitrogen) containing 10% fetal bovine serum (trace), 50 mg/L Gentamicin (Invitrogen) and 0.1% Pluronic F-68 (Invitrogen), and shaking culture was performed using a 2 L volume Erlenmeyer flask at 27° C., 100 rpm. After culturing for 24 hrs, recombinant baculovirus BAC-VEGFR2 (13.4 mL) was added to the mixture, and the mixture was further cultured for 3 days. The culture medium was centrifuged at 2,000 rpm for 5 min to give virus-infected cells. The infected cells were washed with a phosphate buffered saline (Invitrogen), centrifuged under the same conditions, and the cells were preserved at −80° C. The cryopreserved cells were thawed in ice, suspended in buffer A (50 mM Tris buffer (30 mL, pH 7.4) containing 20% glycerol, 0.15 M NaCl) supplemented with Complete Protease Inhibitor (Boehringer), and ruptured 3 times with a Polytron homogenizer (Kinematica) at 20,000 rpm for 30 sec. The ruptured medium was clarified by centrifugation at 40,000 rpm for 30 min and filtered with a 0.45 μm filter. The filtrate was passed through a column packed with Anti-FLAG M2 Affinity Gel (4 mL, Sigma) at a flow rate of about 0.5 mL/min. The column was washed with buffer A, and eluted with buffer A containing 100 μg/mL of FLAG peptide. The eluate was concentrated with Vivaspin 20 (Vivascience) having a molecular weight cut off of 30K. The buffer of this concentrate was exchanged using NAP™ 25 column (Amersham Bioscience) equilibrated with buffer A. The fractions containing intracellular domain protein of VEGFR2 were collected, glycerol was added to the final concentration of 50% and cryopreserved at −80° C.
A test compound dissolved in DMSO was diluted with a buffer (50 mM Tris-HCl (pH 7.5), 5 mM MgCl2, 5 mM MnCl2, 2 mM dithiothreitol, 0.01% Tween-20). To this compound solution (5 μL) was added a buffer (10 μL) containing 50 ng/mL of VEGFR2 intracellular domain protein and 250 ng/mL of biotin labeled polypeptide biotinyl-poly-Glu:Tyr (4:1, CIS bio International). […] The reaction solution was allowed to stand at 25° C. for 16 hrs, and the wells were counted using a plate reader Fusion™ (PerkinElmer). The kinase inhibitory rate (%) of the test compound was calculated by the following formula: Inhibitory rate(%)=(1−(count of test compound−blank)÷(control−blank))×100

[4] = target: T2, PDGFRβ intracellular domain protein (Homo sapiens, UniProt P09619); assay: PDGFRβ kinase inhibitory activity (AlphaScreen); format: biochemical; conditions: ATP 50 μM solution; 25° C., 60 min; read-out: IC50 value, PDGFRβ kinase inhibition
T2 construct: 125 ng/ml of PDGFRβ intracellular domain protein (UPSTATE); purchased UPSTATE
T2 sequence (P09619 554-1106 limits assumed): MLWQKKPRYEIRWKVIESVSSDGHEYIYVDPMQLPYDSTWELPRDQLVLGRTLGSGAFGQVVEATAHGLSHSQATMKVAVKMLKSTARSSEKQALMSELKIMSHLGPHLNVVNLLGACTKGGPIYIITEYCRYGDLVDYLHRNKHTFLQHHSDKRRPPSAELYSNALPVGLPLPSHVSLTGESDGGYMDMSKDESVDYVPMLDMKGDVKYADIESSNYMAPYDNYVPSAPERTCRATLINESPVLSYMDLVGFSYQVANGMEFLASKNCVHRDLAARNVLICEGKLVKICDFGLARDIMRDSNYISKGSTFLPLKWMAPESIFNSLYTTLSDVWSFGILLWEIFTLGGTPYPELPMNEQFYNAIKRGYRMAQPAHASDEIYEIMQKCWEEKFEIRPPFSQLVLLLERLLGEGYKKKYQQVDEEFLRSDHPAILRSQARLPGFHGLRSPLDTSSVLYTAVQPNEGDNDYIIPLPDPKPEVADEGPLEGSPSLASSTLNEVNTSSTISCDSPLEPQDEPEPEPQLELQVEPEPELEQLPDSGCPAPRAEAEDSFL
Protocol: (§1) A test compound dissolved in dimethyl sulfoxide (DMSO) was diluted with a buffer (50 mM Tris-HCl (pH 7.5), 5 mM MgCl2, 5 mM MnCl2, 2 mM dithiothreitol, 0.01% Tween-20). […] The reaction solution was allowed to stand at 25° C. for 16 hr, and the wells were counted using a plate reader Fusion™ (PerkinElmer). The kinase inhibitory rate (%) of the test compound was calculated by the following formula: Inhibitory rate(%)=(1−(count of test compound−blank)÷(control−blank))×100
(§2) The count of the solution reacted without addition of the compound was used as a “control”, and the count of the solution without the compound and ATP was used as a “blank”.

[5] = target: T3, Platelet-derived growth factor receptor α (PDGFRα) intracellular domain protein (Homo sapiens, UniProt P16234); assay: PDGFRα kinase inhibitory activity (AlphaScreen); format: biochemical; conditions: ATP 25 μM solution; 25° C., 30 min; read-out: IC50 value, PDGFRα kinase inhibition
T3 construct: 125 ng/ml of PDGFα intracellular domain protein (UPSTATE); purchased UPSTATE
T3 sequence (P16234 550-1089 limits assumed): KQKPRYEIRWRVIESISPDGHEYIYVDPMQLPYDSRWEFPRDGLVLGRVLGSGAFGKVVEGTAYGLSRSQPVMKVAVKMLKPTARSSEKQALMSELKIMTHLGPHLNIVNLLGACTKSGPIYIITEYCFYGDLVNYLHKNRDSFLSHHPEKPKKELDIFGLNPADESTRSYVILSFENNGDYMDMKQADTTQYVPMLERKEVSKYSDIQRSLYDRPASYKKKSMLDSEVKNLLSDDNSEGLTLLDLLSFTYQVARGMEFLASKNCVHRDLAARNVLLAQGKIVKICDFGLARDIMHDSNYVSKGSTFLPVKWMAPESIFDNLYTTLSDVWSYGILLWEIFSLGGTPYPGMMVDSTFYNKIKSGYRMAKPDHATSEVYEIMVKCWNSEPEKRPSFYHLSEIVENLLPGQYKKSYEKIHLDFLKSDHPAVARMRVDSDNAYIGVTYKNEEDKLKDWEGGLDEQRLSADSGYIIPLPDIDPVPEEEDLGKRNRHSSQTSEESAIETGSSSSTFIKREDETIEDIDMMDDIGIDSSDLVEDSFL
Protocol: as §1, with “hrs,” for “hr,”
as §2

[6] = tested on: Human umbilical vein vascular endothelial cells (HUVEC); assay: Vascular endothelial cell growth inhibitory test (VEGF-stimulated HUVEC, WST-8); format: cell-based; conditions: 120 h, VEGF 120 ng/mL solution added, 5 days of culture, read-out: IC50 value, vascular endothelial cell growth inhibition
Protocol: To be specific, HUVEC was suspended in a vascular endothelial cell medium containing the aforementioned 3% bovine fetal serum and plated in a 96 well flat bottom plate by 50 μL (3000 cells) each well. After culture overnight, various concentrations of the test substance and 120 ng/mL of vascular endothelial growth factor (VEGF) were dissolved in a vascular endothelial cell medium containing 3% bovine fetal serum and added to each well by 50 μL. […] The absorbance at 450 nm was measured by a microtiter plate reader and the cell growth inhibitory activity was determined.

inhibition at 1 µM (BRAF (V600E) kinase): 100%
SMILES: Cc1ccc(NC(=O)c2cccc(C(F)(F)F)c2)cc1Oc1ccc2nc(NC(=O)C3CC3)nn2c1 [Example 235, N-[3-({2-[(cyclopropylcarbonyl)amino][1,2,4]triazolo[1,5-a]pyridin-6-yl}oxy)-4-methylphenyl]-3-(trifluoromethyl)benzamide]

IC50 [1]: < 500 nM
SMILES: Cc1ccc(NC(=O)c2cccc(C(C)(C)C#N)c2)cc1Oc1ccc2nc(NC(=O)C3CC3)nn2c1 [Example 233, 3-(1-cyano-1-methylethyl)-N-[3-({2-[(cyclopropylcarbonyl)amino][1,2,4]triazolo[1,5-a]pyridin-6-yl}oxy)-4-methylphenyl]benzamide]

IC50 [1]: < 500 nM | IC50 [2]: < 500 nM
SMILES: CC(C)(C#N)c1cccc(C(=O)Nc2cccc(Oc3ccc4nc(NC(=O)C5CC5)cn4c3)c2)c1 [Example 228, 3-(1-cyano-1-methylethyl)-N-[3-({2-[(cyclopropylcarbonyl)amino]imidazo[1,2-a]pyridin-6-yl}oxy)phenyl]benzamide]

inhibition at 1 µM [3]: ≥ 90% | IC50 [4]: ≤ 500 nM | IC50 [5]: ≤ 500 nM
SMILES: Cc1cc(C(=O)Nc2cc(Oc3ccc4nc(NC(=O)C5CC5)cn4c3)ccc2F)n(C)n1 [Example 9-2, N-[5-({2-[(cyclopropylcarbonyl)amino]imidazo[1,2-a]pyridin-6-yl}oxy)-2-fluorophenyl]-1,3-dimethyl-1H-pyrazole-5-carboxamide]
IC50 [6]: ≤ 500 nM

inhibition at 1 µM (BRAF (V600E) kinase): 100%
SMILES: CC(C)(C#N)c1cccc(C(=O)Nc2cccc(Oc3ccc4nc(NC(=O)C5CC5)nn4c3)c2)c1 [Example 231, 3-(1-cyano-1-methylethyl)-N-[3-({2-[(cyclopropylcarbonyl)amino][1,2,4]triazolo[1,5-a]pyridin-6-yl}oxy)phenyl]benzamide]

IC50 [2]: < 500 nM
SMILES: N#CC1(c2cccc(C(=O)Nc3cccc(Oc4ccc5nc(NC(=O)C6CC6)nn5c4)c3)c2)CC1 [Example 232, 3-(1-cyanocyclopropyl)-N-[3-({2-[(cyclopropylcarbonyl)amino][1,2,4]triazolo[1,5-a]pyridin-6-yl}oxy)phenyl]benzamide]

inhibition at 1 µM (BRAF (V600E) kinase): 100%
SMILES: O=C(Nc1cccc(Oc2ccc3nc(NC(=O)C4CC4)cn3c2)c1)c1cccc(C(F)(F)F)c1 [Example 226, N-[3-({2-[(cyclopropylcarbonyl)amino]imidazo[1,2-a]pyridin-6-yl}oxy)phenyl]-3-(trifluoromethyl)benzamide]
